Holding throughout (format): cell-based
In one test the test system is Ent. cloacae MA2646. The test is described as follows: in vitro antibacterial activity, microtitration dilution (MIC), Ent. cloacae MA2646. Conditions: Enterobacter cloacae, read-out: minimum inhibiting concentration (MIC). An excerpt:
(§1) The in vitro antibacterial activity, is obtained by the microtitration dilution method as described in Heifetz, et al., Antimicr. Agents & Chemother., 6, 124 (1974), which is incorporated herein by reference.
(§2) By use of the above methods, the following minimum inhibiting concentration values (MICs in μg/mL), PD50 's in mg/kg, no effect phototoxicity dose in mg/kg and the cytotoxicity IC50 in μg/mL were obtained for representative enantiomers of the invention and compounds of the prior art as shown in the table.

In the next test the test system is Esch. coli Vogel. In words: in vitro antibacterial activity, microtitration dilution (MIC), Esch. coli Vogel. Conditions: Escherichia coli, read-out: minimum inhibiting concentration (MIC).
Excerpt: as §1, §2

In another test the test system is Klebs. pneumoniae MGH-2. The test is described as follows: in vitro antibacterial activity, microtitration dilution (MIC), Klebs. pneumoniae MGH-2. To be noted: Klebsiella pneumoniae, MGH2, read-out: minimum inhibiting concentration (MIC).
Excerpt: as §1, §2

The next test concerns Prot. rettgeri M 1771. In words: in vitro antibacterial activity, microtitration dilution (MIC), Prot. rettgeri M 1771. Conditions: Providencia rettgeri, M1771, read-out: minimum inhibiting concentration (MIC).
Excerpt: as §1, §2

The next test has as its system Pseud. aeruginosa UI-18. The test is described as follows: in vitro antibacterial activity, microtitration dilution (MIC), Pseud. aeruginosa UI-18. To be noted: Pseudomonas aeruginosa, UI18, read-out: minimum inhibiting concentration (MIC).
Excerpt: as §1, §2

The subject of a further test is Staph. aureus H 228. The test is described as follows: in vitro antibacterial activity, microtitration dilution (MIC), Staph. aureus H 228. Conditions: Staphylococcus aureus, H228, read-out: minimum inhibiting concentration (MIC).
Excerpt: as §1, §2

A further test concerns Staph. aureus UC-76. The test is described as follows: in vitro antibacterial activity, microtitration dilution (MIC), Staph. aureus UC-76. To be noted: Staphylococcus aureus, UC76, read-out: minimum inhibiting concentration (MIC).
Excerpt: as §1, §2

The next test relates to Strep. faecalis MGH-2. In words: in vitro antibacterial activity, microtitration dilution (MIC), Strep. faecalis MGH-2. Conditions: Enterococcus faecalis, MGH2, read-out: minimum inhibiting concentration (MIC).
Excerpt: as §1, §2

The subject of the next test is Strep. pheumoniae SV-1. The test is described as follows: in vitro antibacterial activity, microtitration dilution (MIC), Strep. pneumoniae SV-1. To be noted: Streptococcus pneumoniae, SV1, read-out: minimum inhibiting concentration (MIC).
Excerpt: as §1, §2

For another test, the system named is Strep. pyogenes C-203. In words: in vitro antibacterial activity, microtitration dilution (MIC), Strep. pyogenes C-203. Conditions: Streptococcus pyogenes, C203, read-out: minimum inhibiting concentration (MIC).
Excerpt: as §1, §2

Consider seven compounds from US5563155A, “Individual stereosiomers of 7-[3-(aminoalkyl)-1-pyrrolidinyl]-quinolones and naphthyridones as antibacterial agents” (Warner-Lambert Company, priority 1995, dated 1996).

≈ marks a conversion by molar mass, not a printed value.

For the compound `CN[C@@H](C)[C@H]1CCN(c2nc3c(cc2F)c(=O)c(C(=O)O)cn3C2CC2)C1` [Example 24, 3S,1S-1-cyclopropyl-6-fluoro-7-[3-(1-N-methylaminoethyl)-1-pyrrolidinyl]-1,4-dihydro-4-oxo-1,8-naphthyridine-3-carboxylic acid], the MIC with Ent. cloacae MA2646 was 0.4 µg/mL (≈ 1.07 µM); with Esch. coli Vogel, 0.2 µg/mL (≈ 0.534 µM); with Klebs. pneumoniae MGH-2 it was 0.4 µg/mL (≈ 1.07 µM); in the test with Prot. rettgeri M 1771 it was 0.8 µg/mL (≈ 2.14 µM); with Pseud. aeruginosa UI-18 it was 3.1 µg/mL (≈ 8.28 µM); with Staph. aureus H 228, 0.8 µg/mL (≈ 2.14 µM). In addition, the MIC was 0.2 µg/mL (≈ 0.534 µM) in the test with Staph. aureus UC-76, 0.8 µg/mL (≈ 2.14 µM) in the test on Strep. faecalis MGH-2, 0.4 µg/mL (≈ 1.07 µM) in the test on Strep. pheumoniae SV-1 and 0.4 µg/mL (≈ 1.07 µM) with Strep. pyogenes C-203.
As for `C[C@H](N)[C@@H]1CCN(c2c(F)cc3c(=O)c(C(=O)O)cn(C4CC4)c3c2C(F)(F)F)C1` [Example 60, 3R,1S-7-[3-(1-aminoethyl)-1-pyrrolidinyl]-1-cyclopropyl-6-fluoro-1,4-dihydro-4-oxo-8-trifluoromethyl-3-quinolinecarboxylic acid], the MIC in the test on Ent. cloacae MA2646 is 0.2 µg/mL (≈ 0.468 µM); with Esch. coli Vogel, 0.2 µg/mL (≈ 0.468 µM); in the test on Klebs. pneumoniae MGH-2, 0.2 µg/mL (≈ 0.468 µM); in the test on Prot. rettgeri M 1771 it was 0.4 µg/mL (≈ 0.936 µM); in the test with Pseud. aeruginosa UI-18, 1.6 µg/mL (≈ 3.74 µM); in the test on Staph. aureus H 228, 0.013 µg/mL (≈ 0.0304 µM). For the same compound, the MIC with Staph. aureus UC-76 worked out at 0.006 µg/mL (≈ 0.014 µM); in the test with Strep. faecalis MGH-2 it was 0.025 µg/mL (≈ 0.0585 µM); in the test with Strep. pheumoniae SV-1, 0.006 µg/mL (≈ 0.014 µM); in the test with Strep. pyogenes C-203 it was 0.006 µg/mL (≈ 0.014 µM).
As for `COc1c(N2CC[C@@H]([C@H](C)N)C2)c(F)c(N)c2c(=O)c(C(=O)O)cn(C3CC3)c12` [Example 59, 3R,1S-5-amino-7-[3-(1-aminoethyl)-1-pyrrolidinyl]-1-cyclopropyl-6-fluoro-1,4-dihydro-8-methoxy-4-oxo-3-quinolinecarboxylic acid], the MIC is 0.05 µg/mL (≈ 0.124 µM) in the test with Ent. cloacae MA2646; 0.05 µg/mL (≈ 0.124 µM) in the test on Esch. coli Vogel; 0.1 µg/mL (≈ 0.247 µM) in the test on Klebs. pneumoniae MGH-2; 0.1 µg/mL (≈ 0.247 µM) with Prot. rettgeri M 1771; 0.8 µg/mL (≈ 1.98 µM) in the test with Pseud. aeruginosa UI-18; 0.006 µg/mL (≈ 0.0148 µM) with Staph. aureus H 228. Further, the MIC with Staph. aureus UC-76 amounted to 0.003 µg/mL (≈ 0.00742 µM); with Strep. faecalis MGH-2 it was 0.006 µg/mL (≈ 0.0148 µM); with Strep. pheumoniae SV-1, 0.003 µg/mL (≈ 0.00742 µM); with Strep. pyogenes C-203, 0.003 µg/mL (≈ 0.00742 µM).
Regarding `COc1c(N2CC[C@@H]([C@@H](C)N)C2)c(F)cc2c(=O)c(C(=O)O)cn(C3CC3)c12` [Example 45, 3R,1R-7-[3-(1-aminoethyl)-1-pyrrolidinyl]-1-cyclopropyl-6-fluoro-1,4-dihydro-8-methoxy-4-oxo-3-quinolinecarboxylic acid], the MIC in the test on Ent. cloacae MA2646 is 0.05 µg/mL (≈ 0.128 µM); in the test on Esch. coli Vogel it was 0.05 µg/mL (≈ 0.128 µM); in the test with Klebs. pneumoniae MGH-2 it was 0.1 µg/mL (≈ 0.257 µM); in the test on Prot. rettgeri M 1771, 0.2 µg/mL (≈ 0.514 µM); with Pseud. aeruginosa UI-18 it was 0.8 µg/mL (≈ 2.05 µM); in the test with Staph. aureus H 228 it was 0.25 µg/mL (≈ 0.642 µM). The MIC in the test with Staph. aureus UC-76 was at most 0.03 µg/mL; in the test with Strep. faecalis MGH-2 it was 0.025 µg/mL (≈ 0.0642 µM); in the test on Strep. pheumoniae SV-1 it was 0.013 µg/mL (≈ 0.0334 µM); in the test with Strep. pyogenes C-203 it was 0.013 µg/mL (≈ 0.0334 µM).
In the case of `C[C@@H]([C@H]1CCN(c2nc3c(cc2F)c(=O)c(C(=O)O)cn3C2CC2)C1)N(C)C` [Example 70, 3S,1S-1-cyclopropyl-7-[3-[1-(dimethylamino)ethyl]-1-pyrrolidinyl]-6-fluoro-1,4-dihydro-4-oxo-1,8-naphthyridine-3-carboxylic acid], the MIC in the test with Ent. cloacae MA2646 is 0.4 µg/mL (≈ 1.03 µM); with Esch. coli Vogel, 0.4 µg/mL (≈ 1.03 µM); with Klebs. pneumoniae MGH-2 it was 0.8 µg/mL (≈ 2.06 µM); in the test on Prot. rettgeri M 1771 it was 3.1 µg/mL (≈ 7.98 µM); in the test on Pseud. aeruginosa UI-18, 12.5 µg/mL (≈ 32.2 µM); with Staph. aureus H 228 it was 0.4 µg/mL (≈ 1.03 µM). Further, the MIC in the test on Staph. aureus UC-76 turned out to be 0.2 µg/mL (≈ 0.515 µM); in the test on Strep. faecalis MGH-2, 0.8 µg/mL (≈ 2.06 µM); in the test on Strep. pheumoniae SV-1 it was 0.2 µg/mL (≈ 0.515 µM); in the test with Strep. pyogenes C-203, 0.4 µg/mL (≈ 1.03 µM).
Regarding `CCN[C@@H](C)[C@H]1CCN(c2nc3c(cc2F)c(=O)c(C(=O)O)cn3C2CC2)C1` [Example 80, 3S,1S-1-cyclopropyl-7-[3-[1-(ethylamino)ethyl]-1-pyrrolidinyl]-6-fluoro-1,4-dihydro-4-oxo-1,8-naphthyridine-3-carboxylic acid], the MIC in the test with Ent. cloacae MA2646 came to 0.2 µg/mL (≈ 0.515 µM); with Esch. coli Vogel, 0.2 µg/mL (≈ 0.515 µM); in the test with Klebs. pneumoniae MGH-2, 0.4 µg/mL (≈ 1.03 µM); in the test with Prot. rettgeri M 1771, 1.6 µg/mL (≈ 4.12 µM); in the test on Pseud. aeruginosa UI-18, 3.1 µg/mL (≈ 7.98 µM); in the test on Staph. aureus H 228, 0.2 µg/mL (≈ 0.515 µM). In addition, the MIC in the test on Staph. aureus UC-76 was determined as 0.1 µg/mL (≈ 0.257 µM); in the test with Strep. faecalis MGH-2, 0.2 µg/mL (≈ 0.515 µM); in the test with Strep. pheumoniae SV-1, 0.1 µg/mL (≈ 0.257 µM); in the test on Strep. pyogenes C-203, 0.4 µg/mL (≈ 1.03 µM).
In the case of `CCN[C@H](C)[C@@H]1CCN(c2nc3c(cc2F)c(=O)c(C(=O)O)cn3-c2ccc(F)cc2F)C1` [Example 51, 3R,1R-7-[3-(1-N-ethylaminoethyl)-1-pyrrolidinyl]-1-(2,4-difluorophenyl)-6-fluoro-1,4-dihydro-4-oxo-1,8-naphthyridine-3-carboxylic acid], the MIC with Ent. cloacae MA2646 was 0.8 µg/mL (≈ 1.74 µM); with Esch. coli Vogel, 0.8 µg/mL (≈ 1.74 µM); in the test on Klebs. pneumoniae MGH-2, 1.6 µg/mL (≈ 3.47 µM); in the test with Prot. rettgeri M 1771 it was 3.1 µg/mL (≈ 6.73 µM); in the test on Pseud. aeruginosa UI-18 it was over 3.1 µg/mL; with Staph. aureus H 228, 0.2 µg/mL (≈ 0.434 µM). Moreover, the MIC stood at 0.05 µg/mL (≈ 0.109 µM) with Staph. aureus UC-76, 0.4 µg/mL (≈ 0.869 µM) in the test with Strep. faecalis MGH-2, 0.2 µg/mL (≈ 0.434 µM) in the test with Strep. pheumoniae SV-1 and 0.2 µg/mL (≈ 0.434 µM) with Strep. pyogenes C-203.
